“Also recorded” adds a separate entry of the source. Read-outs that look alike come from different tables or passages of the source. Values belong to the compound of their own block, whether it stands above or below them.
Assays:
Type in all cases: physicochemical
[1] = Particle size distribution (PSD)
[2] = Form stability of DSP polymorph after processing/recrystallisation (XRPD, DSC, TGA)
Experimental: The farudodstat DSP polymorph was characterized using X-ray powder diffraction (XRPD), differential scanning calorimetry (DSC), thermogravimetric analysis, (TGA) and polarized light microscopy (PLM). Then it was subjected to various recrystallisation and analysis to confirm it was a DSP polymorph.
The suspensions of the DSP polymorph were prepared in different single solvents and mixed solvents (see Table 4 below). After this the samples were kept shaking for 72 hrs at 25° C. and 50° C. before they were centrifuged at 14,000 rpm for 10 mins until solid material was separated from the supernatant. The centrifuged samples were investigated by XRPD. The samples were dried under vacuum conditions at 40° overnight and investigated by XRPD, DSC and TGA if new XRPD patterns were found.
The farudodstat DSP polymorph was subject to processing or treated to test the physical stability of the form.
50 mg of the DSP polymorph was dissolved in the selected solvents (see Table 4) according to the solubility results to form saturated solutions. Next, the anti-solvent was slowly added into the solution under stirring until the precipitation formed. If there was no solid precipitation at room temperature, the sample was transferred into the freezer and stored at −20° C. After this, the slurries were stirred for 24 hours before they were centrifuged at 14,000 rpm for 10 mins, until solid material was separated from the supernatant. The centrifuged samples were investigated by XRPD. The samples were next dried under vacuum conditions at 40° C. overnight. If crystalline XRPD patterns were found, the samples were further investigated by XRPD, DSC and TGA.
Due to the high solubility of the DSP polymorph in some solvents (see Table 4), these solvents were chosen for the evaporation test. The solutions were prepared according to the solubility of the compound and were kept open at room temperature to let the solvents evaporate to form crystals. After evaporation was complete, the dried solids were collected and investigated by XRPD. Further tests were performed on DSC and TGA if new XRPD patterns were found.
10-30 mg of the original form of ASLAN003 was loaded into glass vials and placed in a thermomixer at either 60° C. or 50° C. After this, the selected solvents (see Table 4) were slowly added to the samples until the compound was completely dissolved. Next, the samples were transferred into the Crystal 16 crystallizer and the cooled to 0° C. at a rate of 0.5° C./min, before they were held at 0° C. for 24 hrs. If there was no solid precipitation at 0° C., the sample was transferred into a freezer at −20° C. […]
Two samples from Example 4: • 1. […] THF with water by antisolvent were further characterized after drying under vacuum conditions at 40° C. overnight and evaluated.

[3] = Polymorph screening experiments (XRPD of returned solids); conditions: for XRPD after thermal cycling: 5-40° C., ~72 hours, THP and THF; for XRPD after 2-week slurry: 40° C.; for XRPD (Grind): fast evaporation at 100° C., post-grinding
Experimental: A solvent solubility screen was carried out on the farudodstat DSP polymorph (also referred to as CS-276-22 in the following examples) to determine its solubility in various solvents, and to gain an initial assessment of the polymorphic landscape. To ˜20 mg samples of predominantly amorphous farudodstat, aliquots (2×50 μL and then 100 μL) of the chosen solvents were added until dissolution was observed, or 2 mL had been added. The samples were manually agitated and heated to ˜40° C. in a block attached to a water bath in between each aliquot Clear solutions were uncapped and allowed to evaporate at room temperature. Any solids obtained from slurries and from evaporation were analysed by X-ray powder diffraction (XRPD).
16×20 mg of the farudodstat DSP polymorph sample was weighed into 2 mL bead mill vials and was milled for 1.5 hrs for amorphization. Next, 5 μL of appropriate solvents (see Table 6) were added to each sample. The samples were then bead milled using the following procedure: • 1. 2 stainless steel beads were added to each vial. • 2. 4500 rpm • 3. 10×90 s cycles • 4. 10 s hold between each cycle • 5. Repeated 4× to give 1 hr milling time
16×20 mg of farudodstat sample was first weighed into 2 mL bead mill vials and was milled to prepare amorphous material. To all the […] bead milled samples, appropriate solvents (see Table 6) were added in 100 μL aliquots until a mobile slurry was obtained without any dissolution observed. Between additions, the samples were stirred at 40° C. Samples were then stirred, and temperature cycled between 5-40° C. (0.1° C./min heating/cooling rate, 1 hour hold at each temperature) for ˜72 hours.
After 48 hours, samples were checked. If necessary, additional solids added. Non-mobile solid in solution samples were agitated using a spatula until a mobile slurry was obtained. Slurries were isolated by centrifugation ([…] nylon filters) and the solids analysed by XRPD. Post XRPD analysis, the XRPD plate was dried at 40° C. under vacuum for 48 hours and the solids reanalysed by XRPD to give an indication of form stability.
The saturate isolated from the previous thermal cycling experiment was left to evaporate at room temperature. Any solids returned from evaporation were analysed by XRPD.
16×20 mg of farudodstat sample was weighed into 2 mL bead mill vials and then milled to prepare amorphous material. To the bead milled sample, appropriate solvent was added in 100 μL aliquots until a mobile slurry was obtained without any dissolution observed. Between additions, the samples were stirred at 50° C. and 100° C. depending upon the boiling point of the solvent to dissolve the API in the solvent system. Samples were checked and slurries were isolated by centrifugation ([…] Nylon filters) and the saturates were put in an HPLC vials. Next, the vials were uncapped and were left to evaporate at 50° C. using a water bath. Finally, after the complete evaporation of solvent, the remaining solid were analysed by XRPD to check for appearance of any new patterns.
20 mg×5 of farudodstat sample was weighed into 2 ml bead mill vials and milled to prepare amorphous material. To the bead milled sample, appropriate solvent was added in 100 μL aliquots until a mobile slurry was obtained without any dissolution observed. Between additions, the samples were stirred at 100° C. to dissolve the API in the solvent system. Samples were checked and slurries were isolated by centrifugation (0.22 μm Nylon filters) and the saturates were put in an HPLC vials. The vials were then uncapped and were left to evaporate at 100° C. using a sand bath. After the complete evaporation of solvent, the remaining solid were analysed by XRPD to check for appearance of any new patterns.
20 mg×16 farudodstat sample was weighed into 2 ml bead mill vials and milled to prepare amorphous material. The appropriate solvent was added in 100 μL aliquots until a mobile slurry was obtained without any dissolution observed. […]

[4] = Approximate solubility by manual dilution combined with visual observation; conditions: thermodynamic from solid
Experimental: The approximate solubility was tested at room temperature by manual dilution combined with visual observation. The solubility of material in different single and mixed solvents was determined at the concentration once no particles of farudodstat could be visually observed in solvents.

SMILES: COc1cccc(-c2cc(F)c(Nc3ncccc3C(=O)O)c(F)c2)c1 [1302NC0160A-01]
Particle Size D10 [1]: 2.54 μm
Particle Size D50 [1]: 5.97 μm
Particle Size D90 [1]: 11.79 μm
Particle Size MV [1]: 6.70 μm

SMILES: COc1cccc(-c2cc(F)c(Nc3ncccc3C(=O)O)c(F)c2)c1 [1412NC0160A-01]
Particle Size D10 [1]: 32.34 μm
Particle Size D50 [1]: 160.95 μm
Particle Size D90 [1]: 238.22 μm
Particle Size MV [1]: 151.47 μm

SMILES: COc1cccc(-c2cc(F)c(Nc3ncccc3C(=O)O)c(F)c2)c1 [1412NC0160A-02]
Particle Size D10 [1]: 0.90 μm
Particle Size D50 [1]: 3.46 μm
Particle Size D90 [1]: 45.05 μm
Particle Size MV [1]: 13.27 μm

Further lines, with some results ahead:

Weight loss on heating ([2]; after heating to 200° C.): minimum weight loss
Form found in screening experiments ([2]; all experiments of Table 4 (anti-solvent, grinding, crystallization, drying, milling, heating/cooling, slurry, evaporation)): predominant form
Stability on recrystallisation ([2]; recrystallized from a number of solvents): stable and reproducible
Polymorph stability ([2]; samples from THF evaporation and THF-water antisolvent, dried under vacuum at 40° C. overnight): stable
solubility ([4]; 11 organic solvents/mixed solvents, organic solvent or mixture, read-out: relatively poor solubility): < 10000 µg/mL
solubility ([4]; organic solvent or mixture, Acetone:Dichloromethane (1:1), room temperature, read-out: Solubility): < 1580 µg/mL
solubility ([4]; organic solvent or mixture, Acetone:Dichloromethane (3:1), room temperature, read-out: Solubility): < 1900 µg/mL
solubility ([4]; organic solvent or mixture, CHCl3, room temperature, read-out: Solubility): < 570 µg/mL
solubility ([4]; organic solvent or mixture, Cyclohexane, room temperature, read-out: Solubility): < 490 µg/mL
solubility ([4]; organic solvent or mixture, Dichloromethane, room temperature, read-out: Solubility): < 600 µg/mL
solubility ([4]; organic solvent or mixture, Heptane, room temperature, read-out: Solubility): < 810 µg/mL
solubility ([4]; organic solvent or mixture, THF-Heptane (1:1), room temperature, read-out: Solubility): < 1510 µg/mL
solubility ([4]; organic solvent or mixture, Toluene, room temperature, read-out: Solubility): < 530 µg/mL
solubility ([4]; organic solvent or mixture, some solvents, room temperature, read-out: High solubility): > 100000 µg/mL
solubility ([4]; Water, room temperature, read-out: Solubility): < 530 µg/mL
SMILES: COc1cccc(-c2cc(F)c(Nc3ncccc3C(=O)O)c(F)c2)c1 [farudodstat DSP polymorph, 2-(3,5-difluoro-3′methoxybiphenyl-4-ylamino)nicotinic acid]
Overall stability of polymorph ([3]; conclusion of screening experiments): highly stable; also recorded: high stability

XRPD after room temperature evaporation ([3]; 1,1,1.3.3.3-Hexafluoro-2-Propanol, 2-Methyl THF, DMF, THF and THP): returned to Pattern 1
XRPD of solids, solvent solubility assessment ([3]; 1,1-Dimethoxymethane, 1,4-Dioxane, 2-Ethoxyethanol, 1,1,1,3,3,3-Hexafluoro-2-Propanol, 2-Methyl THF, Benzyl Alcohol): remained amorphous
XRPD after fast evaporation at 50° C. ([3]; 1,1-dimethoxymethane and 2-propanol): showed amorphous pattern
XRPD after fast evaporation at 50° C. ([3]; 1,3-dioxlane, 1,4-dioxane): showed preferred orientation
XRPD after fast evaporation at 50° C. ([3]; 2-Ethoxyethanol, new peak at 21.1° 2θ): potential new pattern
XRPD of solids, solvent solubility assessment ([3]; 2-propanol, 48% Methanol:52% Water, 93% Ethanol:7% Water, 98.5% Ethanol:1.5% Water, Methanol, tert-Butylmethyl Ether): returned to Pattern 1
XRPD after thermal cycling ([3]; 1,4-dioxane): remained semi-crystalline
XRPD after thermal cycling ([3]; solvents other than 1,4-dioxane): returned to Pattern 1
XRPD after 2-week slurry ([3]; 93% Ethanol:7% Water, 48% Methanol:52% Water, 2-Propanol, 2-Methyl THF): returned to Pattern 1
XRPD after anti-solvent addition + fast cool ([3]; MEK as anti-solvent in 1,4-dioxane, freezer 72 hrs): consistent with Pattern 1
XRPD after fast evaporation at 50° C. ([3]; THP, THF, 2-methyl THF and 1,1,1.3.3.3-Hexafluoro-2-Propanol): returned to Pattern 1
XRPD after solvent drop grinding ([3]; all 16 solvent systems): returned to pattern 1
XRPD after bead milling ([3]; bead milling): less crystalline material
XRPD after fast cooling ([3]; crash cooling of 1,3-dioxolane saturate, freezer 72 hrs): preferred orientation of Pattern 1
XRPD (Grind) ([3]; N,N′-Dimethylacetamide): Pattern 1
XRPD (Grind) ([3]; N,N′-Dimethylformamide): Pattern 1
XRPD after anti-solvent addition at 50° C. ([3]; water addition to all the 16 saturates): returned to Pattern 1
XRPD after anti-solvent addition ([3]; water, room temperature, except 2-Methyl THF, 2-Propanol, 48% Methanol:52% Water, 93% Ethanol:7% Water, Benzyl Alcohol (clear solutions)): returned to Pattern 1
SMILES: COc1cccc(-c2cc(F)c(Nc3ncccc3C(=O)O)c(F)c2)c1 [farudodstat, 2-(3,5-difluoro-3′-methoxybiphenyl-4-ylamino) nicotinic acid]
XRPD after room temperature evaporation ([3]; 1,1-Dimethoxymethane, 1,3-Dioxolane, 1,4-Dioxane): showed preferred orientation of Pattern 1 but returned to Pattern 1 after grinding
XRPD after 2-week slurry then fast evaporation at 100° C. ([3]; 1,1-Dimethoxymethane, 1,3-Dioxolane, 2-Ethoxyethanol, 1,1,1.3.3.3-Hexafluoro-2-Propanol, DMA, DMF and NMP): showed preferred orientation. However, post-grinding returned these to Pattern 1
XRPD after 2-week slurry ([3]; THF and THP): additional peaks with Pattern 1 at 8.1° 2θ (Pattern 1+)
XRPD after fast evaporation at 50° C. ([3]; DMF): pattern 1 with significant preferred orientation
XRPD after anti-solvent addition ([3]; acetone as anti-solvent, 1,1,1.3.3.3-Hexafluoro-2-Propanol): returned to Pattern 1 with additional peaks
XRPD of solids, solvent solubility assessment ([3]; evaporation of clear solution of THF and THP): showed preferred orientation, but later returned to Pattern 1 post grinding
